Laboratory results reported in patent publication US9624170B2, “4-(piperrazin-1-yl)-pyrrolidin-2-one compounds as monoacylglycerol lipase (MAGL) inhibitors” (TAKEDA PHARMACEUTICAL COMPANY LIMITED, priority 2013, dated 2017).

biological target: T1, human MAGL (His-hMAGL) (Homo sapiens, UniProt Q99685); experiment: Measurement of MAGL inhibitory activity by mass spectrometry; format: biochemical; conditions: 10 μM test compound; substrate 2-arachidonylglycerol, arachidonic acid by RapidFire-mass spectrometry
T1 construct: made in house; host or cells: Escherichia coli BL21(DE3)
T1 sequence (Q99685 1-303): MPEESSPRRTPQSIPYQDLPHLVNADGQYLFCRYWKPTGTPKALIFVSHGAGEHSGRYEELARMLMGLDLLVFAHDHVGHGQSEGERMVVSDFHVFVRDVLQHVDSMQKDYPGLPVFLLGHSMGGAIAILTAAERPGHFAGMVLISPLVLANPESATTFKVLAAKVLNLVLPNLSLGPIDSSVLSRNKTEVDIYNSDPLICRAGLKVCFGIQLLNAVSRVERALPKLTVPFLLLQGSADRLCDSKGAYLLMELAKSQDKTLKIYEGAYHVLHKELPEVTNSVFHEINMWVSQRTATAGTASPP
Procedure: Thereafter, to each well was added 150 μM 2-arachidonylglycerol (Tocris Bioscience) by 5 μL, and the mixture was incubated at room temperature for 10 min. Then, 2% formic acid (Wako Pure Chemical Industries, Ltd.) was added by 10 μL to discontinue the reaction. Furthermore, acetonitrile (50 μL) containing 3 μM arachidonic acid-d8 (Cayman Chemical Company) was added and the mixture was stirred. The amount of arachidonic acid in the obtained enzyme reaction mixture was calculated by measuring by RapidFire-mass spectrometry and correcting by the amount of arachidonic acid-d8. High Throughput online solid phase extraction was performed using RapidFire 300TM system (Agilent Technologies, Inc.). […] The injection needle was washed with ultrapure water (500 millisecond) and acetonitrile (500 millisecond) to minimize carry-over. […] The RapidFire300 system was controlled by RapidFire UI software version 3.6 (Agilent Technologies, Inc.). The mass spectrometry of the resultant product was performed using […] triple quadrupole mass spectrometer (AB SCIEX) equipped with an electrospray ion sauce (Turbolon SprayTM) in a negative selected reaction monitoring (SRM) mode. The conditions of SRM are shown below. The parameters of the instrument were optimized as follows: capillary temperature 600° C., ion spray voltage -4.5 kV, collision gas 8, curtain gas 15 psi, ion source gas 1 60 psi, ion source gas 2 60 psi. The mass spectrometer was controlled by AnalystTM software version 1.5.1 (AB SCIEX). The peak area integration was analyzed using RapidFire integrator software version 3.6 (Agilent Technologies, Inc.). MAGL inhibitory rate (%) was calculated according to the following calculation formula.

inhibition at 10 µM	Structure (SMILES)
97%	O=C1CCc2ccc(Nc3cccc(N4CC(N5CCN(C(=O)c6nccs6)CC5)CC4=O)c3)cc2N1 (stereo not shown) [Example 123, 7-((3-(2-oxo-4-(4-(1,3-thiazol-2-ylcarbonyl)piperazin-1-yl)pyrrolidin-1-yl)phenyl)amino)-3,4-dihydroquinolin-2(1H)-one]
97%	CC(=O)N1CCCC(Nc2cccc(N3CC(N4CCN(C(=O)c5nccs5)CC4)CC3=O)c2)C1 (stereo not shown) [Example 126, 1-(3-((1-acetylpiperidin-3-yl)amino)phenyl)-4-(4-(1,3-thiazol-2-ylcarbonyl)piperazin-1-yl)pyrrolidin-2-one]
99%	CN1CC(Nc2cccc(N3CC(N4CCN(C(=O)c5nccs5)CC4)CC3=O)c2)CCC1=O (stereo not shown) [Example 127, 1-methyl-5-((3-(2-oxo-4-(4-(1,3-thiazol-2-ylcarbonyl)piperazin-1-yl)pyrrolidin-1-yl)phenyl)amino)piperidin-2-one]
101%	O=C(c1nccs1)N1CCN(C2CC(=O)N(c3ccc4c(ccn4-c4ccc(C(F)(F)F)nn4)c3)C2)CC1 (stereo not shown) [Example 128, 4-(4-(1,3-thiazol-2-ylcarbonyl)piperazin-1-yl)-1-(1-(6-(trifluoromethyl)pyridazin-3-yl)-1H-indol-5-yl)pyrrolidin-2-one]
101%	O=C(c1nccs1)N1CCN(C2CC(=O)N(c3ccc4c(ccn4-c4cnc(C(F)(F)F)cn4)c3)C2)CC1 (stereo not shown) [Example 129, 4-(4-(1,3-thiazol-2-ylcarbonyl)piperazin-1-yl)-1-(1-(5-(trifluoromethyl)pyrazin-2-yl)-1H-indol-5-yl)pyrrolidin-2-one]
91%	O=C(c1nccs1)N1CCN(C2CC(=O)N(c3cncc(-c4ccccc4)c3)C2)CC1 (stereo not shown) [Example 131, 1-(5-phenylpyridin-3-yl)-4-(4-(1,3-thiazol-2-ylcarbonyl)piperazin-1-yl)pyrrolidin-2-one]
101%	Cc1cccc(C)c1-c1cccc(N2CC(N3CCN(C(=O)c4nccs4)CC3)CC2=O)c1 (stereo not shown) [Example 132, 1-(2′,6′-dimethylbiphenyl-3-yl)-4-(4-(1,3-thiazol-2-ylcarbonyl)piperazin-1-yl)pyrrolidin-2-one]
100%	COc1ccccc1-c1cccc(N2CC(N3CCN(C(=O)c4nccs4)CC3)CC2=O)c1 (stereo not shown) [Example 134, 1-(2′-methoxybiphenyl-3-yl)-4-(4-(1,3-thiazol-2-ylcarbonyl)piperazin-1-yl)pyrrolidin-2-one]
100%	N#Cc1ccccc1-c1cccc(N2CC(N3CCN(C(=O)c4nccs4)CC3)CC2=O)c1 (stereo not shown) [Example 135, 3′-(2-oxo-4-(4-(1,3-thiazol-2-ylcarbonyl)piperazin-1-yl)pyrrolidin-1-yl)biphenyl-2-carbonitrile]
102%	O=C(c1nccs1)N1CCN(C2CC(=O)N(c3cccc(-c4ccccc4F)c3)C2)CC1 (stereo not shown) [Example 136, 1-(2′-fluorobiphenyl-3-yl)-4-(4-(1,3-thiazol-2-ylcarbonyl)piperazin-1-yl)pyrrolidin-2-one]
101%	O=C(c1nccs1)N1CCN(C2CC(=O)N(c3cccc(-c4ccccc4C(F)(F)F)c3)C2)CC1 (stereo not shown) [Example 138, 4-(4-(1,3-thiazol-2-ylcarbonyl)piperazin-1-yl)-1-(2′-(trifluorornethyl)biphenyl-3-yl)pyrrolidin-2-one]
100%	O=C(c1nccs1)N1CCN(C2CC(=O)N(c3cccc(-c4ccccc4)n3)C2)CC1 (stereo not shown) [Example 140, 1-(6-phenylpyridin-2-yl)-4-(4-(1,3-thiazol-2-ylcarbonyl)piperazin-1-yl)pyrrolidin-2-one]
98%	O=C(c1nccs1)N1CCN(C2CC(=O)N(c3ccc4c(c3)CCN4c3ncc(C(F)(F)F)cn3)C2)CC1 (stereo not shown) [Example 141, 4-(4-(1,3-Thiazol-2-ylcarbonyl)piperazin-1-yl)-1-(1-(5-(trifluoromethyl)pyrimidin-2-yl)-2,3-dihydro-1H-indol-5-yl)pyrrolidin-2-one]
